The text below walks through data of PubChem BioAssay (NCI).

“And” between values parts separate entries of the source, which are not always exact repeats. Equal values may be shown once.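 Cells were grown in 96-well plates and exposed to each compound for 48 hours at five concentrations; endpoints were interpolated linearly between bracketing concentrations, or set to the highest concentration if not reached. The concentration for 50% growth inhibition is given as GI50. At the TGI there is no net growth.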 Some results are limits rather than exact numbers.

Among the test systems are MCF7 breast; MDA-MB-231 breast; HS 578T breast; MDA-MB-435; DU-145 prostate; MDA-N.
Test in all cases: NCI anticancer screen, dose series, 48 h

`COc1ccc2c(c1)C(=O)c1c-2n(CCCN2CCOCC2)c(=O)c2ccccc12`: the GI50 in the experiment on MCF7 breast was 0.291 µM; in the experiment with MDA-MB-231 breast, 15.4 µM; in the experiment on HS 578T breast it was 8.95 µM; with MDA-MB-435, 4.54 µM; in the experiment on DU-145 prostate it was 2.39 µM. The TGI is 13 µM with MCF7 breast; over 100 µM in the experiment with MDA-MB-231 breast; over 100 µM with HS 578T breast; over 100 µM in the experiment on MDA-MB-435; 10.2 µM in the experiment on DU-145 prostate.
For `Cc1c(C)c2ccc(OC/C=C3\CCC(=O)O3)cc2oc1=O`, the GI50 with MCF7 breast was 11 µM; in the experiment on MDA-MB-231 breast, 16 µM; in the experiment on HS 578T breast, 20.2 µM; in the experiment on MDA-MB-435 it was 17.1 µM; in the experiment with DU-145 prostate, 12.2 µM. Further, the TGI in the experiment with MCF7 breast turned out to be 32.5 µM; in the experiment with MDA-MB-231 breast, 30 µM; with HS 578T breast, 55.9 µM; with MDA-MB-435, 34.6 µM; with DU-145 prostate it was 26.1 µM.
Turning to `Fc1ccc(Nc2nc(NCCNc3ccnc4cc(Cl)ccc34)nc(N3CCOCC3)n2)cc1`, the GI50 with MCF7 breast was 3.43 µM; in the experiment with MDA-MB-231 breast, 3.05 µM; in the experiment with HS 578T breast, 7.32 µM; in the experiment on MDA-MB-435 it was 2.22 µM; with DU-145 prostate, 8.68 µM. Moreover, the TGI with MCF7 breast amounted to 14.7 µM; in the experiment with MDA-MB-231 breast, 11.1 µM; with HS 578T breast, 28.9 µM; in the experiment on MDA-MB-435, 5.38 µM; in the experiment with DU-145 prostate, 21.1 µM.
Regarding `CCN1C(=O)N(CC)C2C1NN=c1s/c(=C3\C(=O)N(C)c4ccccc43)c(=O)n12` (configuration not stated), the GI50 in the experiment on MCF7 breast is 0.373 µM; in the experiment with MDA-MB-231 breast, 1.99 µM; in the experiment on HS 578T breast, 0.542 µM; in the experiment on MDA-MB-435 it was 0.221 µM; in the experiment on DU-145 prostate it was 2.16 µM. Also, the TGI in the experiment with MCF7 breast is 31.2 µM; in the experiment on MDA-MB-231 breast, 34.6 µM; in the experiment on HS 578T breast it was over 39.9 µM; in the experiment on MDA-MB-435, 0.663 µM; in the experiment with DU-145 prostate it was over 100 µM.
With `COc1ccccc1-c1c(C)nn2c(NCc3ccccn3)cc(C)nc12`, the GI50 was 2.92 µM in the experiment on MCF7 breast; 34.7 µM in the experiment with MDA-MB-231 breast; over 44.7 µM in the experiment with HS 578T breast; 23 µM with MDA-MB-435; over 40.2 µM in the experiment on DU-145 prostate. The TGI in the experiment with MCF7 breast, in the experiment on MDA-MB-231 breast, in the experiment on HS 578T breast, in the experiment on MDA-MB-435 and in the experiment on DU-145 prostate was over 50 µM in each case.
On to `CCOC(=O)N1CCN(S(=O)(=O)c2oc(-c3ccc(Cl)cc3)nc2C#N)CC1`, for which the GI50 is 1.75 µM in the experiment on MCF7 breast; 1.94 µM in the experiment on MDA-MB-231 breast; 4.2 µM in the experiment on HS 578T breast; 2.32 µM with MDA-MB-435; 2.48 µM with DU-145 prostate. Further, the TGI in the experiment with MCF7 breast turned out to be 4.21 µM; in the experiment with MDA-MB-231 breast, 4.24 µM; in the experiment on HS 578T breast it was 23.8 µM; with MDA-MB-435 it was 5.24 µM; with DU-145 prostate, 6.31 µM.
On to `C=C[C@]1(C)C=C2C(=O)[C@@]3(O)OC[C@@]4(CCCC(C)(C)C43O)C2(O)C(O)C1` (some centres not stated), for which the GI50 with MCF7 breast is 3.39 µM; in the experiment on MDA-MB-231 breast, 13.3 µM; in the experiment on HS 578T breast, 5.13 µM; in the experiment with MDA-MB-435, 3.95 µM; in the experiment with DU-145 prostate it was 3.03 µM. The TGI with MCF7 breast worked out at 15.3 µM; with MDA-MB-231 breast, 27.3 µM; with HS 578T breast, 22.2 µM; with MDA-MB-435, 14.9 µM; in the experiment on DU-145 prostate it was 11.6 µM.
Turning to `O=[N+]([O-])c1ccc(CS(=O)Cc2ccccc2)cc1` (configuration not stated), the TGI in the experiment on MCF7 breast, in the experiment on MDA-MB-231 breast, in the experiment on HS 578T breast, with MDA-N, with MDA-MB-435 and with DU-145 prostate was over 100 µM each time.
On to `CCOC(=O)c1cnn(-c2ccnc3c(C(F)(F)F)cccc23)c1N`, for which the GI50 was over 100 µM in the experiment with MCF7 breast; over 100 µM in the experiment on MDA-MB-231 breast; 24.8 µM in the experiment with HS 578T breast; over 100 µM in the experiment on MDA-MB-435; over 100 µM in the experiment on DU-145 prostate. Further, the TGI in the experiment with MCF7 breast, with MDA-MB-231 breast, in the experiment with HS 578T breast, in the experiment with MDA-MB-435 and with DU-145 prostate was over 100 µM throughout.
Regarding `CCOC(=O)c1c(C)n(Cc2ccc(Cl)cc2Cl)c2c1cc1oc(=O)c(=O)n3c(Cc4ccccc4)nc2c13`, the GI50 with MCF7 breast is 2.52 µM; in the experiment with MDA-MB-231 breast it was 2.77 µM; with HS 578T breast, 1.21 µM; in the experiment with MDA-MB-435 it was 4.55 µM; with DU-145 prostate, 2.45 µM. Moreover, the TGI in the experiment on MCF7 breast amounted to 8.07 µM; in the experiment on MDA-MB-231 breast, 7.23 µM; in the experiment with HS 578T breast, 3.12 µM; in the experiment on MDA-MB-435, 16.9 µM; with DU-145 prostate, 6.64 µM.
For the compound `Nc1nc(Nc2cccc(F)c2)nc2ccccc12`, the GI50 is 15.6 µM with MCF7 breast; 13.8 µM in the experiment with MDA-MB-231 breast; 20 µM in the experiment with HS 578T breast; 16.8 µM with MDA-MB-435; 37.3 µM in the experiment on DU-145 prostate. In addition, the TGI was over 100 µM in the experiment with MCF7 breast; 34.2 µM with MDA-MB-231 breast; 58 µM with HS 578T breast; 36.6 µM in the experiment with MDA-MB-435; over 100 µM in the experiment on DU-145 prostate.
Turning to `CCc1c2c(nc3cccc(N)c13)-c1cc3c(c(=O)n1C2)COC(=O)[C@]3(O)CC`, the GI50 is under 0.001 µM with MCF7 breast; 0.053 µM in the experiment with MDA-MB-231 breast; 0.0915 µM and 0.704 µM with MDA-N; 0.0349 µM in the experiment with MDA-MB-435; 0.00161 µM in the experiment on DU-145 prostate. Further, the TGI in the experiment on MCF7 breast is 0.0101 µM; in the experiment with MDA-MB-231 breast it was over 100 µM; in the experiment with HS 578T breast, over 100 µM; in the experiment with MDA-N, over 100 µM; in the experiment with MDA-MB-435, 1.54 µM; with DU-145 prostate it was over 100 µM.
On to `CCCCC[C@H]1C/C=C2/C(=O)C(Cl)=C[C@@H]2C/C=C\CCCC(=O)O[C@@H](CCCCC)C/C=C2/C(=O)C(Cl)=C[C@@H]2C/C=C\CCCC(=O)O1`, for which the GI50 with MCF7 breast is 0.155 µM; with MDA-MB-231 breast, 0.372 µM; in the experiment with HS 578T breast it was 0.709 µM; in the experiment on MDA-MB-435, 0.344 µM; in the experiment on DU-145 prostate it was 0.494 µM. Moreover, the TGI in the experiment with MCF7 breast came to 1.93 µM; in the experiment on MDA-MB-231 breast, 0.995 µM; with HS 578T breast it was 16.7 µM; with MDA-MB-435, 0.793 µM; in the experiment with DU-145 prostate it was 1.74 µM.
As to `CC1=CC(=O)C(C(C)=Nc2ccccc2Cl)C(=O)O1` (configuration not stated), the GI50 with MCF7 breast, with MDA-MB-231 breast, in the experiment on HS 578T breast, in the experiment on MDA-MB-435 and in the experiment with DU-145 prostate was over 100 µM in each case. For the same compound, the TGI in the experiment with MCF7 breast, with MDA-MB-231 breast, in the experiment on HS 578T breast, in the experiment with MDA-MB-435 and in the experiment with DU-145 prostate was over 100 µM in each case.
